Assay results reported in patent US20240271133A1, “KRAB-Containing Zinc Finger Protein And Cancer” (ECOLE POLYTECHNIQUE FEDERALE DE LAUSANNE (EPFL), priority 2021, published 2024).

Tested on: U2932 KD cells
Protocol: pLKO.puro shRNA vectors were used for ZNF586, ZNF587 and ZNF417 knock downs. […] The short hairpin RNAs (shRNAs) targeting the sequence ZNF586 (TRCN0000015373 and TRCN0000015376) were obtained from Sigma-Aldrich. Lentiviral vectors production protocols are detailed at http://tronolab.epfl.ch. The cell proliferation after LV transduction was determined using the 3-[4,5-dimethylthiazol-2-yl]-2,5-diphenyltetrazolium bromide (MTT) assay. The cells were transduced at a multiplicity of infection (MOI) of 20 in every experiment.

Row | Structure (SMILES) | cytotoxic interaction of drug with ZNF587/417 depletion
1 | Nc1ncn([C@H]2C[C@H](O)[C@@H](CO)O2)c(=O)n1 [decitabine] | cytotoxic synergism
2 | C=CC(=O)N1CCC[C@@H](n2nc(-c3ccc(Oc4ccccc4)cc3)c3c(N)ncnc32)C1 [ibrutinib] | cytotoxic synergism
